Experiments:
wheat leaf blight fungus = test: Test Example 3: growth of wheat leaf blight fungus in YBG medium, microtiter plate, absorbance at 550 nm; assay type: cell-based; settings: 18° C., six days
Protocol: The present compound 1 or the present compound 2-1 was dissolved into dimethyl sulfoxide such that each concentration of the present compound 1 or the present compound 2-1 was adjusted to one hundred fifty times as much as the concentration indicated in the below-mentioned Table 4. The resultant agent solution was dispensed into a microliter plate (with 96 wells) in 1 μl portion thereof per well. One hundred forty nine (149) μl of YBG medium (which was prepared by dissolving 10 g of yeast extract, 10 g of Bacto Peptone, and 20 mL of glycerol into 1 L of water, followed by sterilizing the medium) was dispensed into the wells to which the agent solution(s) was/were dispensed. The plate was cultivated at 18° C. for six days, thereby allowing wheat leaf blight fungus to undergo proliferation, and the absorbance at 550 nm of each well of the micro titer plate was then measured to examine a degree of growth of the wheat leaf blight fungus (hereinafter referred to as “treated group”).
Whereas, wheat leaf blight fungus was proliferated similarly to the case of the treated group except that dimethyl sulfoxide was used instead of the agent solution, and the degree of the growth was examined (hereinafter referred to as “untreated group”). The efficacy was calculated from the respective obtained degree of growth by the below-mentioned “Equation 1”.
Efficacy(%)=100×(X−Y)/X Equation 1 […]

[1] = tested on: wheat rust fungus (Puccinia recondite); test: Test Example 4: foliar spray of flowable formulations on wheat, inoculation with wheat rust fungus, lesion area; assay type: in vivo, Puccinia recondite on wheat (cultivar. Shirogane); settings: lesion area after ten days at 23° C.
Protocol: Five (5) parts of the present compound 1, 35 parts of a mixture of white carbon and ammonium polyoxyethylene alkyl ether sulfate (the weight ratio of 1:1) and […] of water were mixed, and the mixture was then finely-ground by a wet grinding method to obtain a flowable formulation comprising the present compound 1. Separately, the flowable formulation comprising the present compound 2-1 was prepared according to the above-mentioned similar method except that the present compound 2-1 was used instead of the present compound 1 to form a flowable formulation comprising the present compound 2-1.
Each of the above-mentioned respective flowable formulations, and the flowable formulation comprising the present compound 1 and the present compound 2-1 that was prepared according to the above-mentioned Formulation Example 3 was diluted with water such that each concentration of the respective compounds in the dilution solutions was adjusted to that indicated in Table 5, to prepare the dilution solutions, respectively.
A plastic pot was filled with soil, and thereto wheat (cultivar. Shirogane) was seeded, and the plants were grown in a greenhouse for ten days. […]
From each of the lesion area of the treated group and the untreated group, respectively, the efficacy of the treated group was calculated by the below-mentioned Equation 2. […]

CNC(=O)C(OC)c1ccccc1COc1cc(C)ccc1C (stereo not shown) [Present compound 1]
Efficacy (%) (wheat leaf blight fungus; concentration in medium 0.005 ppm): 20% | Efficacy (%) (wheat leaf blight fungus; concentration in medium 0.1 ppm): 65% | Efficacy (%) ([1]; concentration 0.0005 ppm): 22% | Efficacy (%) ([1]; concentration 0.01 ppm): 46%
